Patent publication US9657034B2, “Substituted furo[3,2-c]pyridines, thieno[3,2-c]pyridines, thieno[2,3-d]pyridazines and pyrido[3,4-d]pyridazines as phosphodiesterase type 10A inhibitors” (AbbVie Deutschland GmbH & Co. KG, priority 2011, dated 2017)

Assays:
[1] = tested on: rats; conditions: cited from earlier work
[2] = tested on: rats; conditions: cited from earlier work; remark: listed apart in the source
[3] = tested on: rats; conditions: cited from earlier work; remark: listed apart in the source
[4] = biological target: T1, PDE10A (human) (Homo sapiens, UniProt Q9Y233); assay: Measurement of PDE activity (HTRF cAMP kit), PDE10A human; assay type: biochemical; conditions: Table 1
T1 construct: purchased BPS Bioscience
Description: The recombinant PDE proteins are used in in vitro enzymatic reaction for measurement of PDE activity. These recombinant proteins, including PDE10A (human, rat and mouse PDE10) and isoforms of PDEs 1, 3, 4, and 5, were purchased from commercial vendor BPS Bioscience. The enzymatic activity of PDEs was determined by cAMP measurement kit from CisBio (IBA) using HTRF technology.
The PDE enzymatic reaction was carried out in assay buffer (20 mM Tris-HCl pH7.5, 10 mM MgCl2, 0.1% bovine serum albumin) containing enzyme and substrate. The PDE enzymes concentration ranged from 10 pM-250 pM, depending on each enzyme's specific activity. The substrate cyclic nucleotide (cAMP or cGMP) concentration used in the assay was 20 nM for PDE10, and 100 nM for other PDEs. The inhibitory effect of compound was determined by incubating various concentration of inhibitor in the enzymatic assay. Typically, compound was serial diluted in DMSO then further diluted in assay buffer. Next, the compound at varying concentration was mixed with PDE enzyme. The reaction was initiated by addition of cyclic nucleotide substrate, and incubated for 60 minutes at 29 C. The reaction was stopped by addition of lysis buffer from assay kit. The cAMP-d2 and anti-cAMP cryptate in the lysis buffer detected the level of cAMP left from the PDE hydrolysis reaction. […]

T1 sequence (Q9Y233 whole entry): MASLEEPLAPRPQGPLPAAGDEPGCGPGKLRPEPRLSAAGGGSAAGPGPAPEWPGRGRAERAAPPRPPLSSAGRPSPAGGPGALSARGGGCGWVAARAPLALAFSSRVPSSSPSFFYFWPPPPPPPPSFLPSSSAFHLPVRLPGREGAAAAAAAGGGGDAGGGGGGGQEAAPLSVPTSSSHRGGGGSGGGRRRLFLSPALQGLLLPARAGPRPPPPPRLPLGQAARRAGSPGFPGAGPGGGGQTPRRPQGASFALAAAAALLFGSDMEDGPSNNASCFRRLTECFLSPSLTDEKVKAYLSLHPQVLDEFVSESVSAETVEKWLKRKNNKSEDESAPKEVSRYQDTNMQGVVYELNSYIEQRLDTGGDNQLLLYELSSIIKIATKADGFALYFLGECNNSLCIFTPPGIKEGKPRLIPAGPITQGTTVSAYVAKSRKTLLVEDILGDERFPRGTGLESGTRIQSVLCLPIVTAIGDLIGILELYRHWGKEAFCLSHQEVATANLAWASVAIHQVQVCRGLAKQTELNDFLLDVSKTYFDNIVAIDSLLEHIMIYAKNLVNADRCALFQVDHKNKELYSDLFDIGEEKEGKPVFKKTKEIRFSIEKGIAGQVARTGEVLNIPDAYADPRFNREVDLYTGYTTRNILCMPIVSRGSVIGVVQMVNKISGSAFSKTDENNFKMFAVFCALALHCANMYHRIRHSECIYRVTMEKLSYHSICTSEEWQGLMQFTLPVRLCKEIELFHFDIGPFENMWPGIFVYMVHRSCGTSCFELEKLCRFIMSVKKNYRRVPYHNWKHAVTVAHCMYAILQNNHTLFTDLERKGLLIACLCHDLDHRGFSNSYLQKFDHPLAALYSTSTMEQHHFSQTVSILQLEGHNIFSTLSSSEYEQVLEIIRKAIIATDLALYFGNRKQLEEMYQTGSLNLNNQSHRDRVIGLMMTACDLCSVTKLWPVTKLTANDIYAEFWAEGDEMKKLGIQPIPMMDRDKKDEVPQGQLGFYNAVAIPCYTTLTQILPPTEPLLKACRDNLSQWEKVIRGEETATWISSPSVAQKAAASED

Row | Compound | reduction of amphetamine-induced hyperactivity [1] | hyperactivity in rats induced by PCP [2] | catalepsy on its own ([3]; papaverine alone) | cataleptic effect of the D2 receptor antagonist haloperidol ([3]; together with haloperidol) | IC50 [4] [nM]
1 | COc1ccc(Cc2nccc3cc(OC)c(OC)cc23)cc1OC [Papaverine, papaverine] | insignificant | reduced hyperactivity | did not cause catalepsy | potentiated the cataleptic effect | –
2 | O=c1c2cccc(-c3cccc(O)c3)c2cnn1CCc1ccc2ccccc2n1 [Example 220, 5-(3-hydroxyphenyl)-2-[2-(quinolin-2-yl)ethyl]phthalazin-1(2H)-one] | – | – | – | – | < 100
3 | anti 8-((3 S)-3-hydroxypiperidin-1-yl)-2-(2-(quinolin-2-yl)cyclopropyl)isoquinolin-1(2H)-one (2E)-but-2-enedioate [Example 244] | – | – | – | – | < 100
